Target: T1, fatty acid cyclooxygenase (Homo sapiens, UniProt P23219)
T1 construct: Microsomes were prepared from 185 bags of human platelets; from tissue; host or cells: human platelets (solubilized microsomes, then electrofocusing and Sephadex G-200)
Test: Fatty Acid Cyclooxygenase (FCO) Assay
Type: biochemical
Conditions: 30 µg/ml test compound; inhibition of formation of PGE2; enzyme from human platelets
Protocol: Microsomes were prepared from 185 bags of human platelets (each bag containing the platelets from one pint of blood prepared using differential centrifugation procedures). The platelets from approximately 60 bags were prepared at one time. Platelet-rich plasma (500 g) was centrifuged at 10,000 x g for 20 minutes, and the platelet pellet was suspended in 100 ml of 0.1M. potassium phosphate buffer, pH 8.0, with a Teflon glass homogenizer and sonicated for 5.0 minutes with a Bronson Sonifier (Model 350) in a rosette flask cooled in ice water. Disrupted platelets were centrifuged 15 minutes at 10,000 x g. The supernatant was centrifuged at 100,000 x g for 90 minutes and the microsomal pellets were homogenized in 25 ml of 20% sucrose containing 1.0% Triton X-100 detergent. After 30 minutes at 4°C, the solubilized microsomes were centrifuged at 100,000 x g for 60 minutes. The yellow supernatant was removed and stored at -70°C.
The solubilized fatty acid cyclooxygenase was applied to a 440 ml electrofocusing column (LKB-8012) containing 1% phisolytes (Brinkman Instruments, Westburgh, NY), pH 2-11, with the cathode at the top of the column. The enzyme was layered onto the column at the appropriate time so that its sucrose concentration was equal to that of the column gradient. This was accomplished by checking the gradient concentration periodically with a sucrose hand refractometer. Electrofocusing was carried out for 16 hours with an initial voltage of 400 V and a final voltage of 900-1,000 volts. Fractions were collected (20 ml) and assayed for PGE2 formation. Active peak fractions were pooled and concentrated by ultrafiltration (XM 100A) to a volume of 3-5 ml.
Active fractions from electrofocusing were applied to a G-200 Sephadex column (2 cm x 46 cm) and eluted with 10 mM potassium phosphate buffer, pH 7.0, in 5 ml fractions. After assay, active fractions were pooled and concentrated to 1.0 ml by ultrafiltration (XM 100A), and kept frozen at -70°C.
Enzyme activity was determined by assaying for PGE2 formation by preincubating the enzyme with 10 mmol/l imidazole phosphate buffer, pH 8.0, 2 mmol/l epinephrine, 2 mmol/1 methemoglobin, and the test compound (30 pg/ml) in a total volume of 0.2 ml for one minute at 37°C. After preincubation, 5 mmol/1 ^14C-arachidonic acid were added and the mixture was incubated an additional 0.5 minutes at 37°C. The enzyme reaction was stopped by the addition of 20 µl of indomethacin (2 mg/ml) in alcohol.
The reaction mixture was spotted (50 pl) on a silica gel (LQ6D) plate and subjected to TLC. The solvent system consisted of chloroform-methanol-glacial acetic acid (90:5:5, v/v/v) and the relative mobilities were PGF2a = 0.235, and PGE2 = 0.47. The silica gel on the plate was scraped in 1 cm sections, suspended in 5 ml of the scintillation fluid [5.88 g of 2,5-diphenyl-oxazole and 118 mg of 1,4-bis(5-phenyloxazol-2-yl)benzene] dissolved in 650 ml of toluene and 350 ml of Triton X-100) and the radioactivity was determined in an Isocap/300 liquid scintillation counter (Searle Analytic, Inc., Southfield, MI). Another 50 µl of the mixture was added to 10 ml of the Triton X-100 based scintillation fluid, and the radioactivity was determined so that the amount of radioactivity recovery from the TLC plate could be ascertained. PGE2 formation for each test compound was determined as a percent of control experiments wherein no test compound was added. Data is expressed in Table I as the percent inhibition of formation of PGE2 at a test compound concentration of 30 pg/ml.

T1 sequence (P23219 24-599): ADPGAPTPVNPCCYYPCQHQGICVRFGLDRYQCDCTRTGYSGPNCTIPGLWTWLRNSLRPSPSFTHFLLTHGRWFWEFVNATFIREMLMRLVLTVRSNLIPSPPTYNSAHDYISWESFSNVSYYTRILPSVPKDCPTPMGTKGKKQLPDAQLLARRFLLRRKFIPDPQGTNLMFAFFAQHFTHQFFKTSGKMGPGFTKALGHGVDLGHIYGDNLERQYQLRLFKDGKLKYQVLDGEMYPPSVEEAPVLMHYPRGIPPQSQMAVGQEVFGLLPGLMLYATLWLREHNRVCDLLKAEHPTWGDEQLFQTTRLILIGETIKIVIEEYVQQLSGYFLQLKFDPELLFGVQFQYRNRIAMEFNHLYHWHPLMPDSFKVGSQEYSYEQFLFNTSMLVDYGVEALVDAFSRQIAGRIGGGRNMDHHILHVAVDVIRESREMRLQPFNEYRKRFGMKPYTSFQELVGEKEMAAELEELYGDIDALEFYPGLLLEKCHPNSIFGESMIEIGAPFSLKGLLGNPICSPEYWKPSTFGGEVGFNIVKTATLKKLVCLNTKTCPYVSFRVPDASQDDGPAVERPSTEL

| Compound | inhibition at 30 µg/mL [%] |
| --- | --- |
| CCCCC/C=C\C/C=C\CCCCCCC1=CC(=O)OC1O (stereo not shown) [Example 1, (Z,Z)-4-(7,10-hexadecadienyl)-5-hydroxy-2-(5H)-furanone] | 77 |
| CC/C=C\C/C=C\C/C=C\CCCCCCC1=CC(=O)OC1O (stereo not shown) [Example 2, (Z,Z,Z)-4-(7,10,13-hexadecatrienyl)-5-hydroxy-2(5H)-furanone] | 75 |
| CCCCC/C=C\C/C=C\C/C=C\C/C=C\CCC1=CC(=O)OC1O (stereo not shown) [Example 3, (Z,Z,Z,Z)-5-hydroxy-4-(3,6,9,12-octa-decatetraenyl)-2(5H)-furanone] | 67 |
| CCCCCCCC/C=C/CCCCCCC1=CC(=O)OC1O (stereo not shown) [Example 4, (E)-4-(7-hexadecenyl)-5-hydroxy-2(5H)-furanone] | 52 |
| CCCCC/C=C\C/C=C\C/C=C\CCCC1=CC(=O)OC1O (stereo not shown) [Example 5, (Z,Z,Z)-4-(4,7,10-hexadecatrienyl)-5-hydroxy-2(5H)-furanone] | 75 |
| CC/C=C\C/C=C\C/C=C\C/C=C\C/C=C\C/C=C\CC1=CC(=O)OC1O (stereo not shown) [Example 9, (Z,Z,Z,Z,Z,Z)-4-(2,5,8,11,14,17-eicosa-hexaenyl)-5-hydroxy-2(5H)-furanone] | 46 |
| CCCCCCCC/C=C\CCCCCCC1=CC(=O)OC1O (stereo not shown) [Example 11, (Z)-4-(7-hexadecenyl)-5-hydroxy-2(5H)-furanone] | 61 |
| O=C1C=C(CCCCOc2ccc3ccccc3c2)C(O)O1 (stereo not shown) [Example 12, 5-Hydroxy-4-[4-(2-naphthalenyloxy)butyl]-2(5H)-furanone] | 16 |
| CC(C)=CCCC(C)=CCCC(C)=CCCC1=CC(=O)OC1O (stereo not shown) [Example 13, 5-Hydroxy-4-(4,8,12-trimethyl-3,7,11-tri-decatrienyl)-2(5H)-furanone] | 47 |
| CC(C)=CCC/C(C)=C/CCC1=CC(=O)OC1O (stereo not shown) [Example 14, (E,E)-4-(4,8-dimethyl-3,7-nonadienyl)-5-hydroxy-2(5H)-furanone] | < 5 |
| CC(C)=CCCC(C)=CCCC(C=O)=CCCC1=CC(=O)OC1O (stereo not shown) [Example 15, 2-[3-(2,5-dihydro-2-hydroxy-5-oxo-3-furanyl)-propylidene]-6,10-dimethyl-5,9-undecadienal] | 32 |
| O=C1C=C(CCCCCOc2ccccc2Cc2ccccc2)C(O)O1 (stereo not shown) [Example 18, 5-Hydroxy-4-[5-(2-benzylphenoxy)pentyl]-2(5H)-furanone] | 20 |
| CC(C)=CCCC(C)=CCCC(=CCCC1=CC(=O)OC1O)CO (stereo not shown) [Example 19, 5-Hydroxy-4-[4-(hydroxymethyl)-8,12-dimethyl-3,7,11-tridecatrienyl]-2(5H)-furanone] | 14 |
